Laboratory results published in ChEMBL document CHEMBL1909046, “DrugMatrix in vitro pharmacology data”.

How the values were obtained:
[1] = target: Acetylcholinesterase (Homo sapiens, UniProt P22303); test: DRUGMATRIX: Acetylcholinesterase enzyme inhibition (substrate: acetylthiocholine); type: cell-based, HEK293; details: hek293; Not Active = under 50% inhibition at 10 µM
[2] = DRUGMATRIX: Leukotriene, BLT (LTB4) radioligand binding (ligand: [3H]LTB4); type: cell membranes, Membrane; details: u-937; Not Active = under 50% inhibition at 10 µM
[3] = target: Delta-type opioid receptor (Homo sapiens, UniProt P41143); type: cell membranes, HEK293, Membrane; details: hek293; note: in other assays of this panel Not Active means under 50% inhibition at 10 µM
[4] = target: 5-hydroxytryptamine receptor 1B (Rattus norvegicus, UniProt P28564); type: cell membranes, Wistar, Cerebral cortex, Membrane; note: in other assays of this panel Not Active means under 50% inhibition at 10 µM
[5] = target: T1, Neuropeptide Y receptor type 2 (Homo sapiens, UniProt P49146); type: cell membranes, Membrane; details: kan-ts; note: in other assays of this panel Not Active means under 50% inhibition at 10 µM
T1 sequence (P49146 whole entry): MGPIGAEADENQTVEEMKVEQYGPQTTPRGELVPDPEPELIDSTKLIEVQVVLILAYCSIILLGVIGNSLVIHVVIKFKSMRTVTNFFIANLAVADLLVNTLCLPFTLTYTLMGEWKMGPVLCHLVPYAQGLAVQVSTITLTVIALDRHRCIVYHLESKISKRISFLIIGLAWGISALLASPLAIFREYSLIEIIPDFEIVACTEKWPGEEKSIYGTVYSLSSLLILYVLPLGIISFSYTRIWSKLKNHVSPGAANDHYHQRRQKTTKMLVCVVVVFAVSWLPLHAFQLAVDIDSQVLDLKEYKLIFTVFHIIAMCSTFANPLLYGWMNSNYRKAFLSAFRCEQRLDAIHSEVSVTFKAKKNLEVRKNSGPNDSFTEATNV

[6] = target: T2, Leukotriene C4 synthase (Cavia porcellus, UniProt A6XA80); test: biochemical; type: tissue-based, Lung;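 note: enzyme inhibition assay of leukotriene C4 synthase, using LTA4 as the substrate; in other assays of this panel Not Active means under 50% inhibition at 10 µM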
T2 sequence (A6XA80 whole entry): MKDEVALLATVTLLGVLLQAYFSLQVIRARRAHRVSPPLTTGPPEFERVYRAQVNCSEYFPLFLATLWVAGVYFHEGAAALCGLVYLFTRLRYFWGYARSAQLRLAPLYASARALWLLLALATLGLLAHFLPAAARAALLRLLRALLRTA

Sequence of 5-hydroxytryptamine receptor 1B (P28564 whole entry): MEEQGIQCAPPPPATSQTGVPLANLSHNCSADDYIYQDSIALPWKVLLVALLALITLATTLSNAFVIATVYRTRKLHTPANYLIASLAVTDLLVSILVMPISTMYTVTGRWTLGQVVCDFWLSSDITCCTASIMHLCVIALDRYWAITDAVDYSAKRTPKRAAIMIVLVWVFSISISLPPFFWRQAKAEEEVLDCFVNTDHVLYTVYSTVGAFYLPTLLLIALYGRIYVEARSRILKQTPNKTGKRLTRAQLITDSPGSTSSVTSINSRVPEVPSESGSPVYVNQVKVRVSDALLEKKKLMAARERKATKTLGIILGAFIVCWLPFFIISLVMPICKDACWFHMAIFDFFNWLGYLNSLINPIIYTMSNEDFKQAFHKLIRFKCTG
Sequence of Delta-type opioid receptor (P41143 whole entry): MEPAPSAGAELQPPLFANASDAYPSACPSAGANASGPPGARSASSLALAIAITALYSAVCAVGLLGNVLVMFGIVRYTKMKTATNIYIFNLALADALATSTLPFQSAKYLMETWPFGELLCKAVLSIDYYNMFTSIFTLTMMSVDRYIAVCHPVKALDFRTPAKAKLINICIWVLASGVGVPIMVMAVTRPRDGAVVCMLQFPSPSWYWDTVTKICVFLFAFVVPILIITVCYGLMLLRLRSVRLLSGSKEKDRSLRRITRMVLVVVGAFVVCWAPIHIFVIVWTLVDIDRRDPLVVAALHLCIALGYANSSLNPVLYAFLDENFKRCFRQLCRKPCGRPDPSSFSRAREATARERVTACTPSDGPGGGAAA
Sequence of Acetylcholinesterase (P22303 whole entry): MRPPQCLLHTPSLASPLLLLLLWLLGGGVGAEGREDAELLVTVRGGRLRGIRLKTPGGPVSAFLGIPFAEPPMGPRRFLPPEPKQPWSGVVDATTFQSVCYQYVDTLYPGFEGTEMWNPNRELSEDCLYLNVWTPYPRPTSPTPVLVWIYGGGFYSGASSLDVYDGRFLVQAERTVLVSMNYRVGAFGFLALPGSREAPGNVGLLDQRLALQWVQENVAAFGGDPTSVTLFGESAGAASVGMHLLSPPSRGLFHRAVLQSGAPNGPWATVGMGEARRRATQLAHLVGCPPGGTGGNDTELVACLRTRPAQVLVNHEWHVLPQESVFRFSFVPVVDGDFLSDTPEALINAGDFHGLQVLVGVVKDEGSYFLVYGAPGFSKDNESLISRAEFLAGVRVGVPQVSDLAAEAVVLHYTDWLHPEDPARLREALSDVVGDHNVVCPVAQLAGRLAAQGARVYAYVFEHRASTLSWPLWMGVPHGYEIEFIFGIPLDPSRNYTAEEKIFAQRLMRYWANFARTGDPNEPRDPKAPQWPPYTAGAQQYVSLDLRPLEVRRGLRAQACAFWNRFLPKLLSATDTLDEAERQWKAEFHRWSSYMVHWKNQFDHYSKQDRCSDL

C[C@H]1C[C@H]2[C@@H]3CCC4=CC(=O)C=C[C@]4(C)[C@@]3(F)[C@@H](O)C[C@]2(C)[C@@]1(O)C(=O)CO [BETAMETHASONE]
Not Active: IC50 [1] | IC50 [2] | Ki [2] | IC50 [3] | IC50 [4] | IC50 [5] | IC50 [6]

CC(C)NCC(O)COc1ccc(CC(N)=O)cc1 (stereo not drawn) [ATENOLOL]
Not Active: IC50 [1] | IC50 [2] | Ki [2] | IC50 [3] | IC50 [4] | IC50 [5] | IC50 [6]

O=C1c2ccccc2C(=O)C1c1ccccc1 [PHENINDIONE]
Not Active: IC50 [1] | IC50 [2] | Ki [2] | IC50 [3] | IC50 [4] | IC50 [5] | IC50 [6]

CCCCCCNC(=O)n1cc(F)c(=O)[nH]c1=O [CARMOFUR]
Not Active: IC50 [1] | IC50 [2] | Ki [2] | IC50 [3] | IC50 [4] | IC50 [5] | IC50 [6]

O=c1[nH]cnc2c1ncn2[C@H]1CC[C@@H](CO)O1 [DIDANOSINE]
Not Active: IC50 [1] | IC50 [2] | Ki [2] | IC50 [3] | IC50 [4] | IC50 [5] | IC50 [6]

CC(=O)Nc1ccc2c(c1)Cc1ccccc1-2 [2-ACETYLAMINOFLUORENE]
Not Active: IC50 [1] | IC50 [2] | Ki [2] | IC50 [3] | IC50 [4] | IC50 [5] | IC50 [6]

CC(C)(c1ccc(O)cc1)c1ccc(O)cc1 [BISPHENOL A]
Not Active: IC50 [1] | IC50 [2] | Ki [2] | IC50 [3] | IC50 [4] | IC50 [5] | IC50 [6]

CO[C@H]1O[C@@H]2O[C@@]3(C)CC[C@H]4[C@H](C)CC[C@@H]([C@H]1C)[C@@]24OO3
Not Active: IC50 [1] | IC50 [2] | Ki [2] | IC50 [3] | IC50 [4] | IC50 [5] | IC50 [6]

C#C[C@]1(O)CC[C@H]2[C@@H]3CCC4=CC(=O)CC[C@@H]4[C@H]3CC[C@@]21C [NORETHINDRONE]
Not Active: IC50 [1] | IC50 [2] | Ki [2] | IC50 [3] | IC50 [4] | IC50 [5] | IC50 [6]

CN(Cc1cc(Br)cc(Br)c1N)C1CCCCC1 [BROMHEXINE]
Not Active: IC50 [1] | IC50 [2] | Ki [2] | IC50 [3] | IC50 [4] | IC50 [5] | IC50 [6]

CC12CCC(CC1=O)C2(C)C (stereo not drawn) [CAMPHOR]
Not Active: IC50 [1] | IC50 [2] | Ki [2] | IC50 [3] | IC50 [4] | IC50 [5] | IC50 [6]

C[C@@H]1[C@H](O)[C@@H](C)/C=C/C=C/C=C/C=C/C=C/C=C/C=C/[C@H](O[C@@H]2O[C@H](C)[C@@H](O)[C@H](N)[C@@H]2O)C[C@@H]2O[C@](O)(C[C@@H](O)C[C@@H](O)[C@H](O)CC[C@@H](O)C[C@@H](O)CC(=O)O[C@H]1C)C[C@H](O)[C@H]2C(=O)O [AMPHOTERICIN B]
Not Active: IC50 [1] | IC50 [2] | Ki [2] | IC50 [3] | IC50 [4] | IC50 [5] | IC50 [6]

Nc1ccc(Cc2ccc(N)cc2)cc1
Not Active: IC50 [1] | IC50 [2] | Ki [2] | IC50 [3] | IC50 [4] | IC50 [5] | IC50 [6]

CCN(CCO)CCCC(C)Nc1ccnc2cc(Cl)ccc12 (stereo not drawn) [HYDROXYCHLOROQUINE]
Not Active: IC50 [1] | IC50 [2] | Ki [2] | IC50 [3] | IC50 [4] | IC50 [5] | IC50 [6]

O=C(O)COC(=O)Cc1ccccc1Nc1c(Cl)cccc1Cl [ACECLOFENAC]
Not Active: IC50 [1] | IC50 [2] | Ki [2] | IC50 [3] | IC50 [4] | IC50 [5] | IC50 [6]

O=C(O)CCc1nc(-c2ccccc2)c(-c2ccccc2)o1 [OXAPROZIN]
Not Active: IC50 [1] | IC50 [2] | Ki [2] | IC50 [3] | IC50 [4] | IC50 [5] | IC50 [6]

C=CCN1CC[C@]23c4c5ccc(O)c4O[C@H]2/C(=N/N=C2\CC[C@@]4(O)[C@H]6Cc7ccc(O)c8c7[C@@]4(CCN6CC=C)[C@H]2O8)CC[C@@]3(O)[C@H]1C5 [NALOXONAZINE]
Not Active: IC50 [1] | IC50 [2] | Ki [2] | IC50 [4] | IC50 [5] | IC50 [6]

O=C(O)CO [GLYCOLIC ACID]
Not Active: IC50 [1] | IC50 [2] | Ki [2] | IC50 [3] | IC50 [4] | IC50 [5] | IC50 [6]

COC(=O)Nc1nc2ccc(Sc3ccccc3)cc2[nH]1 [FENBENDAZOLE]
Not Active: IC50 [1] | IC50 [2] | Ki [2] | IC50 [3] | IC50 [4] | IC50 [5] | IC50 [6]

CC12CCC(CC1)C(C)(C)O2 [EUCALYPTOL]
Not Active: IC50 [1] | IC50 [2] | Ki [2] | IC50 [3] | IC50 [4] | IC50 [5] | IC50 [6]

O=C(Nc1ccc(Cl)c(Cl)c1)c1cc(Cl)cc(Cl)c1O [3,3',4',5-TETRACHLOROSALICYLANILIDE]
Not Active: IC50 [1] | IC50 [2] | Ki [2] | IC50 [3] | IC50 [4] | IC50 [5] | IC50 [6]

Cc1ccnc2c1NC(=O)c1cccnc1N2C1CC1 [NEVIRAPINE]
Not Active: IC50 [1] | IC50 [2] | Ki [2] | IC50 [3] | IC50 [4] | IC50 [5] | IC50 [6]

O=C1CN(/N=C/c2ccc([N+](=O)[O-])o2)C(=O)N1 [NITROFURANTOIN]
Not Active: IC50 [1] | IC50 [2] | Ki [2] | IC50 [3] | IC50 [4] | IC50 [5] | IC50 [6]

O=c1[nH]c2ccccc2c2ccccc12
Not Active: IC50 [1] | IC50 [2] | Ki [2] | IC50 [3] | IC50 [4] | IC50 [5] | IC50 [6]

COC(=O)C[C@](O)(CCC(C)(C)O)C(=O)O[C@@H]1C(OC)=C[C@]23CCCN2CCc2cc4c(cc2[C@H]13)OCO4 [HARRINGTONINE]
Not Active: IC50 [1] | IC50 [2] | Ki [2] | IC50 [3] | IC50 [4] | IC50 [5] | IC50 [6]

Nc1nc(F)nc2c1ncn2[C@@H]1O[C@H](CO)[C@@H](O)[C@@H]1O [FLUDARABINE]
Not Active: IC50 [1] | IC50 [2] | Ki [2] | IC50 [3] | IC50 [4] | IC50 [5] | IC50 [6]

C=C(Cl)Cl [1,1-DICHLOROETHENE]
Not Active: IC50 [1] | IC50 [2] | Ki [2] | IC50 [3] | IC50 [4] | IC50 [5] | IC50 [6]

CC[C@H]1OC(=O)[C@H](C)[C@@H](O[C@H]2C[C@@](C)(OC)[C@@H](O)[C@H](C)O2)[C@H](C)[C@@H](O[C@@H]2O[C@H](C)C[C@H](N(C)C)[C@H]2O)[C@](C)(O)C[C@@H](C)C(=O)[C@H](C)[C@@H](O)[C@]1(C)O [ERYTHROMYCIN]
Not Active: IC50 [1] | IC50 [2] | Ki [2] | IC50 [3] | IC50 [4] | IC50 [5] | IC50 [6]

CCC1(c2ccccc2)C(=O)NC(=O)NC1=O [PHENOBARBITAL]
Not Active: IC50 [1] | IC50 [2] | Ki [2] | IC50 [3] | IC50 [4] | IC50 [5] | IC50 [6]

CCN1C[C@]2(COC)[C@H](O)C[C@H](OC)[C@@]34[C@@H]5C[C@@]6(O)[C@H](OC(=O)c7ccccc7)[C@@H]5[C@@](OC(C)=O)([C@@H]([C@H](OC)[C@H]23)[C@@H]14)[C@@H](O)[C@@H]6OC [ACONITINE]
Not Active: IC50 [1] | IC50 [2] | Ki [2] | IC50 [3] | IC50 [4] | IC50 [5] | IC50 [6]

CCN1CCN(C(=O)N[C@@H](C(=O)N[C@@H]2C(=O)N3[C@@H]2SC(C)(C)[C@@H]3C(=O)O)c2ccccc2)C(=O)C1=O [PIPERACILLIN]
Not Active: IC50 [1] | IC50 [2] | Ki [2] | IC50 [3] | IC50 [4] | IC50 [5] | IC50 [6]

O=C(O)c1ccccc1 [BENZOIC ACID]
Not Active: IC50 [1] | IC50 [2] | Ki [2] | IC50 [3] | IC50 [4] | IC50 [5] | IC50 [6]
